What all share (type): cell-based
Test [1] concerns the target HER2 (A775_G776insYVMA) expressing Ba/F3 stable cell line (Homo sapiens, UniProt P04626, DUP772-775, cells depend on it). Put plainly: Cellular proliferation (Alamar Blue) assay, HER2 A775_G776insYVMA Ba/F3. To be noted: 72 hr, read-out: YVMA IC50. The essentials:
(§1)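 Alamar Blue read-out, 3 h at 37 °C, after 72 hr compound exposure of Ba/F3 transfectants (15,000 cells/well, RPMI + 10% FBS, plated 16-18 h earlier).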

Test [2] has as its target EGFR(D770_N771insSVD) expressing Ba/F3 stable cell line (Homo sapiens, UniProt P00533, DUP768-770, cells depend on it). In words: Cellular proliferation (Alamar Blue) assay, EGFR D770_N771insSVD Ba/F3. To be noted: 72 hr, read-out: D770 IC50. The procedure, abridged: as §1
Test [3] addresses EGFR (A767_dupASV) expressing Ba/F3 stable cell line (Homo sapiens, UniProt P00533, DUP767-769, cells depend on it). Put plainly: Cellular proliferation (Alamar Blue) assay, EGFR A767_dupASV Ba/F3. The settings on record: 72 hr, read-out: A767 IC50. The procedure, abridged: as §1
Another test concerns A431 cells. In words: Cellular proliferation (Alamar Blue) assay, A431.
[4] abbreviates: Homo sapiens, A-431; A431 cells, Alamar Blue, 72 hr; read-out: A431 IC50.
Setting [5] is: Homo sapiens, A-431; A431 cells, 72 hr, Alamar Blue; read-out: A431 IC50.

Like-named read-outs stand apart in the source and are kept apart here. A value given as a limit tells only on which side of the number the result lay.

Sequence of EGFR(D770_N771insSVD) expressing Ba/F3 stable cell line (P00533 with tags, fused parts or gaps DUP768-770): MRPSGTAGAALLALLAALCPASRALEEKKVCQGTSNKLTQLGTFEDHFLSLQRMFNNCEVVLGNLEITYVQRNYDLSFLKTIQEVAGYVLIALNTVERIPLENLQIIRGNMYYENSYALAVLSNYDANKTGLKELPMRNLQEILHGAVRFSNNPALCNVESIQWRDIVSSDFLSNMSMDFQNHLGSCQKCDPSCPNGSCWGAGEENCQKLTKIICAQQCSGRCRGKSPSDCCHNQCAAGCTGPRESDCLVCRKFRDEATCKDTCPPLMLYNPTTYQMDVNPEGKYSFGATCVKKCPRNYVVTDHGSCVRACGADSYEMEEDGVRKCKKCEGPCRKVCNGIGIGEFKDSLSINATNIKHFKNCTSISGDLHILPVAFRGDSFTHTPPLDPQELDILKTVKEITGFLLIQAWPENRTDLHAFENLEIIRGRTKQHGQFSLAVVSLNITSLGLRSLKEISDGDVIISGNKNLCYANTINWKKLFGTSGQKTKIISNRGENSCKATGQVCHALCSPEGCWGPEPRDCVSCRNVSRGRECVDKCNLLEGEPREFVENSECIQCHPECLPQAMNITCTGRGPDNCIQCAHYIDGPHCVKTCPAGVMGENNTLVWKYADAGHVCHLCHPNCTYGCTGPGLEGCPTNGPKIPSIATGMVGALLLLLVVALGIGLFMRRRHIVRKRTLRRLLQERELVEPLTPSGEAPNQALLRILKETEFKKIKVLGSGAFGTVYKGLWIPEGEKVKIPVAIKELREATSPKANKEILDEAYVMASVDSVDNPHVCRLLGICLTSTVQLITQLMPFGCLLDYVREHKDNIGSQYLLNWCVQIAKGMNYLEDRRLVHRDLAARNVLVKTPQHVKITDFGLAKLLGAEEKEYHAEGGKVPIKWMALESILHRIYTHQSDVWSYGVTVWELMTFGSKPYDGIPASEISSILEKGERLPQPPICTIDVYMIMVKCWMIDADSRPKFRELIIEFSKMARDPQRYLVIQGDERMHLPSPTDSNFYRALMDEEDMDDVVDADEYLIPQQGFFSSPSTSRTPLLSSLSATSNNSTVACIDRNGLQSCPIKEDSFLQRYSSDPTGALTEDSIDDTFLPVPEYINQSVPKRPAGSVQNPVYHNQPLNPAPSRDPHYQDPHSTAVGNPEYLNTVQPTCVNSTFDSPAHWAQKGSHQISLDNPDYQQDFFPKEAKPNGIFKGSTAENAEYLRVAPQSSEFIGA
Sequence of EGFR (A767_dupASV) expressing Ba/F3 stable cell line (P00533 with tags, fused parts or gaps DUP767-769): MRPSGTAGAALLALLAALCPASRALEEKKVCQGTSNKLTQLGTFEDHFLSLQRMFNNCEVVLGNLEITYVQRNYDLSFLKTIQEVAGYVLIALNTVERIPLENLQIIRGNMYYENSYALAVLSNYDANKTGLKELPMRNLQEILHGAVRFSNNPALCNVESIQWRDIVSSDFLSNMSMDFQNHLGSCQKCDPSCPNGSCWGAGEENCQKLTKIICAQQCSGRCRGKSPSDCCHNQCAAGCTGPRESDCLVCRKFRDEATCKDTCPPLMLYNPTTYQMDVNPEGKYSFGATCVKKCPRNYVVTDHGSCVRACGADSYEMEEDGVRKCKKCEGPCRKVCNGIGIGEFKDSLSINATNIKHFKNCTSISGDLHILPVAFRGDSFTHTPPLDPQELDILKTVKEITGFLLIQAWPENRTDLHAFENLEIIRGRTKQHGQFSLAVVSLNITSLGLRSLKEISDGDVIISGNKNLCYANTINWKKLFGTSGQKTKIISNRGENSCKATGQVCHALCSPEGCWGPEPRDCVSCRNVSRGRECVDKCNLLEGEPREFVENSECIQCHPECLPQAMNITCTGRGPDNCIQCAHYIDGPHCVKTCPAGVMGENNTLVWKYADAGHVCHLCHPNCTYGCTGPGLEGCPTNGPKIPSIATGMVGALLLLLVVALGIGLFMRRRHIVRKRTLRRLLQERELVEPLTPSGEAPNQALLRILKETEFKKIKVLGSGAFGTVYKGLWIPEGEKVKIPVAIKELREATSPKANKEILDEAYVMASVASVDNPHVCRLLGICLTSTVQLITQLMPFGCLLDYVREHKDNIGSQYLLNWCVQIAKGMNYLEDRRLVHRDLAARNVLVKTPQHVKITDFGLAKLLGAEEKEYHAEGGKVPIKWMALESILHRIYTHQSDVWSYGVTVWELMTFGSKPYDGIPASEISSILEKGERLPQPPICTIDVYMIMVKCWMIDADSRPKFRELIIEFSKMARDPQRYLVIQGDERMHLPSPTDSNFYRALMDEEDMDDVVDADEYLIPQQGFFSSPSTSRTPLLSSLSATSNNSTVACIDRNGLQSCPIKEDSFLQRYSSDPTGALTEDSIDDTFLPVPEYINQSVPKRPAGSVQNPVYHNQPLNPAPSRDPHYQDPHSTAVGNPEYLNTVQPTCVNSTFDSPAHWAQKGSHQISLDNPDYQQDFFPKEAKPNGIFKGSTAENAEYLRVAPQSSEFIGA
Sequence of HER2 (A775_G776insYVMA) expressing Ba/F3 stable cell line (P04626 with tags, fused parts or gaps DUP772-775): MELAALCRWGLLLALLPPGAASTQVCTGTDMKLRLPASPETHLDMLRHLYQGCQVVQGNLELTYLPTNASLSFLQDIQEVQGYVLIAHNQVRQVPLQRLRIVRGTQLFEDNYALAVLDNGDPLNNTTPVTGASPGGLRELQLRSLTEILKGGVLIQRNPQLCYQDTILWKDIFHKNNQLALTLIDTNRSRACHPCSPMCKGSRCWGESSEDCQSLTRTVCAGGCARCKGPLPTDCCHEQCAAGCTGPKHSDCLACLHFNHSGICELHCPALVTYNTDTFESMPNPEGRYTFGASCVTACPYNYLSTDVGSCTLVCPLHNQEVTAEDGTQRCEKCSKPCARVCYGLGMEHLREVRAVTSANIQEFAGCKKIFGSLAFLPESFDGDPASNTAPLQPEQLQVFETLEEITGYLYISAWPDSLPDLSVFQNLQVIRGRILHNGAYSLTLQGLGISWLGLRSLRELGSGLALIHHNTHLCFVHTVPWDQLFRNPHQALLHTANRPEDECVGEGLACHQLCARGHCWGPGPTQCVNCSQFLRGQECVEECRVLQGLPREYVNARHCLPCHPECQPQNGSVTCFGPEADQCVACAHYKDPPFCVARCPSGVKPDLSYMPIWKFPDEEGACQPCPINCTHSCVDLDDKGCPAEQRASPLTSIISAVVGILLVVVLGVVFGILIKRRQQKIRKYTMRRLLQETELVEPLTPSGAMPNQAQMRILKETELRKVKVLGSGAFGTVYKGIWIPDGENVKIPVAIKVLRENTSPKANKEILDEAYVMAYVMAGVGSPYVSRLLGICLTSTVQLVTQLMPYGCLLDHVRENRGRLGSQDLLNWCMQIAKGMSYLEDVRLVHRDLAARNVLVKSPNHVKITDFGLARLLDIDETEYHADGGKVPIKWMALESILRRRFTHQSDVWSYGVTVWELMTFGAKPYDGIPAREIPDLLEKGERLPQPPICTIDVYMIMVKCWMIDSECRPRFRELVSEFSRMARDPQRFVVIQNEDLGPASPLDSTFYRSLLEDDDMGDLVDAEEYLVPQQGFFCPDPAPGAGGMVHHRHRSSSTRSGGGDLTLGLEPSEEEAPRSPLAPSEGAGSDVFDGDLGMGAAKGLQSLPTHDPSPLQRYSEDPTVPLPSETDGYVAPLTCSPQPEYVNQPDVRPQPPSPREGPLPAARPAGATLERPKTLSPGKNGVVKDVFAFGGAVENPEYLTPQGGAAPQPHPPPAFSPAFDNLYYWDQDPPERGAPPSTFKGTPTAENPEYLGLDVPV

As for `C=CC(=O)Nc1ccc(-c2ccccc2)c(Nc2ccnc(Nc3cnn(C)c3)n2)c1` [Compound 175, N-[2-({2-[(1-methyl-1H-pyrazol-4-yl)amino]pyrimidin-4-yl}amino)-[1,1′-biphenyl]-4-yl]prop-2-enamide], the GI50 in test [1], in test [2] and in test [3] was above 10000 nM throughout. Besides, in the test on A431 cells (setting [4]), the IC50 was above 10000 nM.
`CN(C)C/C=C/C(=O)Nc1ccc(-c2ccccc2)c(Nc2ccnc(Nc3cnn(C)c3)n2)c1` [Compound 176, (E)-4-(dimethylamino)-N-(2-((2-((1-methyl-1H-pyrazol-4-yl)amino)pyrimidin-4-yl)amino)-[1,1′-biphenyl]-4-yl)but-2-enamide]: the GI50 is above 10000 nM in test [1], above 10000 nM in test [2] and 8020 nM in test [3]. In the test on A431 cells (setting [4]), the 50% inhibitory concentration (IC50) was above 10000 nM.
As to `C=CC(=O)Nc1ccc(-c2ccccc2)c(Nc2nc(Nc3cnn(C)c3)ncc2Cl)c1` [Compound 177, N-(2-((5-chloro-2-((1-methyl-1H-pyrazol-4-yl)amino)pyrimidin-4-yl)amino)-[1,1′-biphenyl]-4-yl)acrylamide], the GI50 in test [1], in test [2] and in test [3] was above 10000 nM throughout. In addition, the 50% inhibitory concentration (IC50) in the test on A431 cells (setting [4]) is above 10000 nM.
Take `CN(C)C/C=C/C(=O)Nc1ccc(C#Cc2ccccc2)c(Nc2nc(Nc3cnn(C)c3)ncc2Cl)c1` [Compound 179, (E)-N-(3-((5-chloro-2-((1-methyl-1H-pyrazol-4-yl)amino)pyrimidin-4-yl)amino)-4-(phenylethynyl)phenyl)-4-(dimethylamino)but-2-enamide]: the GI50 is 4030 nM in test [1], above 10000 nM in test [2] and above 10000 nM in test [3]. Besides, the 50% inhibitory concentration (IC50) in the test with A431 cells (setting [4]) was above 10000 nM.
Turning to `C=CC(=O)Nc1ccc(F)c(Nc2nc(Nc3cnn(C)c3)ncc2-c2cccc(Br)c2)c1` [Compound 201, N-(3-((5-(3-bromophenyl)-2-((1-methyl-1H-pyrazol-4-yl)amino)pyrimidin-4-yl)amino)-4-fluorophenyl)acrylamide], the GI50 turned out to be 424 nM in test [1], 270 nM in test [2] and 227 nM in test [3]. The IC50 with A431 cells (setting [5]) was determined as 1520 nM.
With `C=CC(=O)Nc1cccc(Nc2nc(Nc3cnn(C)c3)ncc2-c2ccc(Br)cc2)c1F` [Compound 202, N-(3-((5-(4-bromophenyl)-2-((1-methyl-1H-pyrazol-4-yl)amino)pyrimidin-4-yl)amino)-2-fluorophenyl)acrylamide], the results for the GI50 in test [1], in test [2] and in test [3] were 217 nM, 35 nM and 34 nM, respectively. In the test with A431 cells (setting [5]), the IC50 turned out to be 44 nM.
On the same counts, the results for `C=CC(=O)Nc1ccc(F)c(Nc2nc(Nc3cn(C)nc3Cl)ncc2-c2ccc(Br)cc2)c1` [Compound 204, N-(3-((5-(4-bromophenyl)-2-((3-chloro-1-methyl-1H-pyrazol-4-yl)amino)pyrimidin-4-yl)amino)-4-fluorophenyl)acrylamide] are 688 nM, 93 nM, 131 nM and 28 nM.
With `C=CC(=O)Nc1ccc(F)c(Nc2nc(Nc3cnn(C4COC4)c3)ncc2-c2ccc(Br)cc2)c1` [Compound 205, N-(3-((5-(4-bromophenyl)-2-((1-(oxetan-3-yl)-1H-pyrazol-4-yl)amino)pyrimidin-4-yl)amino)-4-fluorophenyl)acrylamide], the GI50 in test [1] is 278 nM; in test [2], 39 nM; in test [3], 73 nM. In addition, in the test with A431 cells (setting [5]), the IC50 is 132 nM.
The like results for `C=CC(=O)Nc1ccc(F)c(Nc2nc(Nc3cnn(CCO)c3)ncc2-c2ccc(Br)cc2)c1` [Compound 206, N-(3-((5-(4-bromophenyl)-2-((1-(2-hydroxyethyl)-1H-pyrazol-4-yl)amino)pyrimidin-4-yl)amino)-4-fluorophenyl)acrylamide] were, in that order, 120 nM, 35 nM, 44 nM and 36 nM.
On the same counts, the results for `C=CC(=O)Nc1ccc(F)c(Nc2nc(Nc3cn(CCN(C)C)nc3Cl)ncc2-c2ccc(Br)cc2)c1` [Compound 208, N-(3-((5-(4-bromophenyl)-2-((3-chloro-1-(2-(dimethylamino)ethyl)-1H-pyrazol-4-yl)amino)pyrimidin-4-yl)amino)-4-fluorophenyl)acrylamide] are 402 nM, 76 nM, 121 nM and 46 nM.
The like results for `C=CC(=O)Nc1ccc(F)c(Nc2cc(Nc3cnn(C)c3)ncc2-c2ccc(C(F)(F)F)cc2)c1` [Compound 210, N-[4-fluoro-3-({2-[(1-methyl-1H-pyrazol-4-yl)amino]-5-[4-(trifluoromethyl)phenyl]pyridin-4-yl}amino)phenyl]prop-2-enamide] were, in that order, 3580 nM, 2840 nM, 2900 nM and 4480 nM.
`C=CC(=O)Nc1ccc(F)c(N(C)c2nc(Nc3cnn(C)c3)ncc2-c2ccc(C(F)(F)F)cc2)c1` [Compound 228, N-(4-fluoro-3-(methyl(2-((1-methyl-1H-pyrazol-4-yl)amino)-5-(4-(trifluoromethyl)phenyl)pyrimidin-4-yl)amino)phenyl)acrylamide]: the values for the GI50 in test [1], in test [2] and in test [3] were 1250 nM, 952 nM and 891 nM, respectively. Moreover, in the test with A431 cells (setting [5]), the concentration for half-maximal inhibition (IC50) was 4120 nM.
The like results for `C=CC(=O)Nc1cc(Nc2nc(Nc3cnn(C)c3)ncc2-c2ccc(C(F)(F)F)cc2)ccc1F` [Compound 238, N-(2-fluoro-5-((2-((1-methyl-1H-pyrazol-4-yl)amino)-5-(4-(trifluoromethyl)phenyl)pyrimidin-4-yl)amino)phenyl)acrylamide] were, in that order, 3010 nM, 312 nM, 90 nM and 617 nM.
On the same counts, the results for `C=CC(=O)Nc1cc(F)cc(Nc2nc(Nc3cnn(C)c3)ncc2-c2ccc(C(F)(F)F)cc2)c1` [Compound 239, N-(3-fluoro-5-((2-((1-methyl-1H-pyrazol-4-yl)amino)-5-(4-(trifluoromethyl)phenyl)pyrimidin-4-yl)amino)phenyl)acrylamide] are 251 nM, 36 nM, 91 nM and 229 nM.
As to `C=CC(=O)Nc1ccc(F)c(Nc2nc(Nc3cnn(CC(C)(C)O)c3)ncc2-c2ccc(C(F)(F)F)cc2)c1` [Compound 240, N-(4-fluoro-3-((2-((1-(2-hydroxy-2-methylpropyl)-1H-pyrazol-4-yl)amino)-5-(4-(trifluoromethyl)phenyl)pyrimidin-4-yl)amino)phenyl)acrylamide], the GI50 in test [1] was 2010 nM; in test [2], 395 nM; in test [3], 861 nM. Moreover, the 50% inhibitory concentration (IC50) in the test with A431 cells (setting [5]) turned out to be 441 nM.
The like results for `C=CC(=O)Nc1ccc(F)c(Nc2nc(Nc3cn(CCO)nc3Cl)ncc2-c2ccc(C(F)(F)F)cc2)c1` [Compound 241, N-(3-((2-((3-chloro-1-(2-hydroxyethyl)-1H-pyrazol-4-yl)amino)-5-(4-(trifluoromethyl)phenyl)pyrimidin-4-yl)amino)-4-fluorophenyl)acrylamide] were, in that order, 343 nM, 105 nM, 146 nM and 105 nM.
The like results for `C=CC(=O)Nc1ccc(F)c(Nc2nc(Nc3cnn(C)c3)ncc2C#CC2CC2)c1` [Compound 244, N-(3-{[5-(2-cyclopropylethynyl)-2-[(1-methyl-1H-pyrazol-4-yl)amino]pyrimidin-4-yl]amino}-4-fluorophenyl)prop-2-enamide] were, in that order, 2250 nM, 1890 nM, 2180 nM and 1810 nM.
On the same counts, the results for `C=CC(=O)Nc1ccc(F)c(Nc2nc(Nc3cn(C)nc3Cl)ncc2-c2ccc(C(F)(F)F)cc2)c1` [Compound 245, N-[3-({2-[(3-chloro-1-methyl-1H-pyrazol-4-yl)amino]-5-[4-(trifluoromethyl)phenyl]pyrimidin-4-yl}amino)-4-fluorophenyl]prop-2-enamide] are 202 nM, 91 nM, 115 nM and 63 nM.
On to `C=CC(=O)Nc1ccc(F)c(Nc2nc(Nc3cnn(C(C)(C)C#N)c3)ncc2-c2ccc(C(F)(F)F)cc2)c1` [Compound 246, N-(3-((2-((1-(2-cyanopropan-2-yl)-1H-pyrazol-4-yl)amino)-5-(4-(trifluoromethyl)phenyl)pyrimidin-4-yl)amino)-4-fluorophenyl)acrylamide], for which the results for the GI50 in test [1], in test [2] and in test [3] were 2070 nM, 299 nM and 303 nM, respectively. Also, the IC50 with A431 cells (setting [5]) was found to be 368 nM.
`[2H]C([2H])=CC(=O)Nc1ccc(F)c(Nc2nc(Nc3cn(C)nc3Cl)ncc2-c2ccc(C(F)(F)F)cc2)c1` [Compound 249, N-(3-((2-((3-chloro-1-methyl-1H-pyrazol-4-yl)amino)-5-(4-(trifluoromethyl)phenyl)pyrimidin-4-yl)amino)-4-fluorophenyl)acrylamide-3,3-d2]: the GI50 in test [1] was determined as 1050 nM; in test [2], 101 nM; in test [3], 261 nM. Moreover, in the test with A431 cells (setting [5]), the IC50 worked out at 123 nM.

These data come from patent publication US12686673B2 (Blueprint Medicines Corporation, priority 2020, dated 2026).
